Reference: patent US20150017673A1, “COMPOSITIONS AND METHODS FOR DRUG-SENSITIZATION OR INHIBITION OF A CANCER CELL” (priority 2012, published 2015)
“And” between values parts separate entries of the source, which are not always exact repeats. Equal entries are not always repeated. Where two headings read alike, the source gives them in different places.

What was measured:
[1] = test system: multi-drug-resistant breast cancer cell line MDA-MB-231; test: Cell growth assay on MDA-MB-231 cells; assay type: cell-based; details: MDA-MB-231, breast carcinoma
Method: Compositions were tested on CHOP-resistant G3 NHL cells that had been cultivated in RPMI medium for five days. Prior to assay, the cells were counted by haemocytometer and cell concentration standardized to 625,000 cells/ml. Test drugs were solubilized in 100% DMSO and then diluted to final assay concentration with 0.1M phosphate buffered saline (PBS) and a final DMSO concentration of 0.5%. Cells were added to assay plates containing the test drugs (rifabutin+148 ng/ml, 74 ng/ml, 37 ng/ml, or 0 ng/ml doxorubicin) and allowed to incubate for 96 hours at 37° C. and 5% CO2. The metabolic dye rezasurin was added to the wells of the assay plate at a final concentration of 20 μg/ml and the plates were incubated for an additional 24 hours. The plates were then read in a BMG Polarstar plate reader at wavelength (573-605) and the data plotted as OD versus increasing dilutions (i.e. decreasing total amounts) of rifabutin derivative concentration.
In these experiments, the following cell lines were used: CHOP-resistant NHL cell line G3, CHOP-sensitive NHL cell line CRL2631, the multi-drug resistant sarcoma cell line MES-SA-Dx5; multi-drug-resistant breast cancer cell line MDA-MB-231, multi-drug resistant ovarian carcinoma cell line SK-OV3, multi-drug resistant ovarian cancer cell line NCI/ADR-RES, drug-sensitive ovarian cancer cell line OVCAR-5, and multi-drug resistant ovarian cancer cell line OVCAR-3.
Additional cell lines used include: ovarian cancer OVCAR-8, T lymphoblastoid leukemia MOLT-4, dexamethasone-resistant multiple myeloma MM.1R, myeloid leukemia cells HL-60, osteosarcoma cells U-2 OS, and myeloma RPMI 8226.

[2] = test system: lymphoma cell line G3; test: Cell growth assay (resazurin fluorescence) on CHOP-resistant G3 NHL cells; assay type: cell-based, human; details: for IC50: Homo sapiens
Method in brief: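 CHOP-resistant G3 NHL cells grown five days in RPMI medium were counted by haemocytometer and set to 625,000 cells/ml. They were then added to plates holding test drug, first dissolved in 100% DMSO and diluted in 0.1M PBS to 0.5% final DMSO. Plates incubated 96 hours at 37° C. and 5% CO2. Resazurin at 20 μg/ml was added for a further 24 hours, and plates were read on a BMG Polarstar at 573-605.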

[3] = target: ABCB1 pumps (Homo sapiens, UniProt P08183); details: NCI/ADR-RES and G3 cells
ABCB1 pumps, sequence (P08183 whole entry): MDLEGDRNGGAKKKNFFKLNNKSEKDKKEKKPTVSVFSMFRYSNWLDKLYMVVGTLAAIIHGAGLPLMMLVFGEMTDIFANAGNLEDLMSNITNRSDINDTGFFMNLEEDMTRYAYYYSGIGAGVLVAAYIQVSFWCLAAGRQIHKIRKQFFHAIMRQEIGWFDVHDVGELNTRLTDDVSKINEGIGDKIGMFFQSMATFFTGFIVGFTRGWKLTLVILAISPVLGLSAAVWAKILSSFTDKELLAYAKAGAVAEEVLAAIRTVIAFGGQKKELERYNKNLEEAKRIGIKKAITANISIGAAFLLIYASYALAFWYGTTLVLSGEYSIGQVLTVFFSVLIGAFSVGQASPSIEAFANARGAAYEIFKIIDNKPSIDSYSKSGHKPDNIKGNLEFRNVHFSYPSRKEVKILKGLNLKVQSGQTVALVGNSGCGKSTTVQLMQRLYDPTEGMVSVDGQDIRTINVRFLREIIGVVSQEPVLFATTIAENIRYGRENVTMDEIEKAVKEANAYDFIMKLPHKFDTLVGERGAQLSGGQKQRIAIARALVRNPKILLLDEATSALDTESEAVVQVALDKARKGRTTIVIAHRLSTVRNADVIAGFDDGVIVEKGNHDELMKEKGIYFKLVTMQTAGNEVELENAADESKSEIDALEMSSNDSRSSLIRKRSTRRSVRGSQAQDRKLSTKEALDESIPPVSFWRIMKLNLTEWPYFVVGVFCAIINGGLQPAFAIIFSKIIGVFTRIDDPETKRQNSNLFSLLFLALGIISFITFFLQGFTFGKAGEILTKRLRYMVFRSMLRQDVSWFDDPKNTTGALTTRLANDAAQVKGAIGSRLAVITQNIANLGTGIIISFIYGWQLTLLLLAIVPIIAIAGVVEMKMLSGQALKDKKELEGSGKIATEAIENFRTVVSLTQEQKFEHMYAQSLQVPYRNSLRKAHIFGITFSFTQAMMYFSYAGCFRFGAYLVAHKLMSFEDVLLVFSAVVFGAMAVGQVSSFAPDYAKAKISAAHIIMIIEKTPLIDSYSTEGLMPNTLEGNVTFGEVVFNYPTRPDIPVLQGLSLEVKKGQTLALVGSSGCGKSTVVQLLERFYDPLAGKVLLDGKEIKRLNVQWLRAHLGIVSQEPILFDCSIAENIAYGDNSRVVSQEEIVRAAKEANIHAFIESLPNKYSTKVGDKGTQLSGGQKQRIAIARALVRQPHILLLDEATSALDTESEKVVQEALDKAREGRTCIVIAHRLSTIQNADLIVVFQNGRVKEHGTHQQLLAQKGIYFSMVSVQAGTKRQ

[4] = test system: primary human fibroblasts; details: with and without 2 uM Dox
[5] = test system: lymphoma aspirate from a dog with CHOP-resistant lymphoma; test: CHOP responsiveness of dog lymphoma aspirate (resazurin); assay type: cell-based
Method: A single lymphoma aspirate from a dog with CHOP-resistant lymphoma was tested for responsiveness to CHOP in the presence or absence of rifabutin. CHOP-responsiveness was measured by a decrease in fluorescence signal generated by resazurin.

[6] = test system: multi-drug resistant ovarian carcinoma cell line SK-OV3; test: Cell growth assay on SK-OV3 cells; assay type: cell-based, human; details: SK-OV3, ovarian carcinoma
[7] = test system: CHOP-sensitive NHL cell line CRL2631; test: Cell growth assay (resazurin) on CHOP-sensitive CRL2631 NHL cells; assay type: cell-based, human
[8] = test system: CRL2631 cells; test: Collagen invasion 3D assay, CRL2631 cells; assay type: cell-based, human; details: 10 uM Rifabutin in collagen matrix, 24 hours
Method: The effects of rifabutin on cell invasion was assessed in a collagen invasion 3D assay. Increased interest in the use of 3D culture systems has been motivated by accumulating evidence that 3D models better reflect the microenvironment of tumors and metastases and more accurately predict therapeutic response in vivo compared with conventional 2D assays. A collagen invasion 3D assay allows the rapid and quantitative assessment of invasiveness and a means to screen for drugs which alter the invasive phenotype of tumor cells.
The CHOP-resistant G3 cell line is much more invasive in a collage invasion 3D assay than its CHOP-sensitive parent cell line (CRL2631). Collagen matrices (1 mg/ml) were prepared as previously described in Su, S. C., et al., Molecular profile of endothelial invasion of three-dimensional collagen matrices: insights into angiogenic sprout induction in wound healing. Am. J. Physiol. […] Cell invasion density was quantified by counting fixed cultures under transmitted light using an Olympus CK2 inverted microscope equipped with eyepieces displaying a 10×10 ocular grid. For each condition, four random fields were selected and the number of invading cells per high power field (HPF) was counted manually at 10× magnification, corresponding to 1 mm^2 area. […]

Structure (SMILES): CO[C@H]1/C=C/O[C@@]2(C)Oc3c(C)c(O)c4c(c3C2=O)C2=NC3(CCN(CC(C)C)CC3)NC2=C(NC(=O)/C(C)=C\C=C\[C@H](C)[C@H](O)[C@@H](C)[C@@H](O)[C@@H](C)[C@H](OC(C)=O)[C@@H]1C)C4=O [Rifabutin, rifabutin]
- Magnitude of potentiation in combination with doxorubicin [1]: +++ (potentiation greater than 5 fold increase)
- Magnitude of potentiation in combination with doxorubicin ([2]; G3, lymphoma B cells): +++ (potentiation greater than 5 fold increase)
- IC50 ([2]; analog alone, lymphoma cell line G3, read-out: IC50): > 64 µM
- IC50 ([2]; with 1 μM doxorubicin, lymphoma cell line G3, read-out: IC50 (μM) with doxorubicin (1 μM)): 0.25 µM
- Fold increase in potency over DOX alone ([2]; lymphoma cell line G3): 9.4 fold
- cell growth in the absence of CHOP ([2]; rifabutin alone, G3): did not affect the growth
- inhibition of efflux pumps [3]: clear inhibition of efflux pumps
- comparative cytotoxicity to normal cells [4]: not toxic to normal cells
- CHOP dose giving significant growth inhibition ([5]; CHOP with 5 μM rifabutin): 320 ng/mL and 640 ng/mL
- cell viability in the absence of CHOP ([5]; rifabutin alone): no effect on cell viability
- Magnitude of potentiation in combination with doxorubicin [6]: + (potentiation between 1.2 to 2.0 fold increase)
- sensitivity of cells to CHOP relative to a control drug ([7]; CHOP-sensitive cells as printed, FIG. 2B): enhanced the sensitivity
- CHOP sensitivity of low-ROS cell population ([7]; low-ROS CRL2631 cells, 10 uM rifabutin): sensitized to CHOP
- cell growth in the absence of CHOP ([7]; rifabutin alone, CRL2631): did not affect the growth
- reduction of invasion [8]: Less of this effect
